This passage reports MIC and antifungal activity ranking results from patent publication US20180360791A1, “FATTY ACID MONOGLYCERIDE COMPOSITIONS” (Stiefel Laboratories, Inc., priority 2009, published 2018).

Molecules are shown by their SMILES. In brackets after ≈: the same amount, converted by molar mass. Structures can show the parent of a compound that is named as a salt.

For one experiment, the system named is Trichophyton rubrum. Kind of experiment: Liquid broth assay (MIC). Type of experiment: cell-based. Particulars: for MIC: Trichophyton rubrum, 672 h, liquid (broth) culture, incubated up to 4 weeks, one value without distinguishing the two dermatophytes, read-out: minimal inhibitory concentration (MIC); for antifungal activity ranking: liquid broth assay, rank 1 = most active, same ranking for both dermatophytes. On the procedure:
(§1) The minimum inhibitory concentration (MIC) of various test agents were tested in a standard protocol against two dermatophytes: Trichophyton rubrum and Trichophyton mentagrophyles:
(§2) Trichophyton rubrum and Trichophyton mentagrophytes were grown on potato dextrose agar (PDA) at 30° C. for 1-5 weeks. One clone was picked randomly and grown in sabouraud dextrose broth (SDB) to a density of 1×10^6 colony forming units (cfu) per ml. Various concentrations of test agents were added to the dermatophyte cultures and incubated for up to 4 weeks. Each week, an aliquot of the liquid culture was taken and placed on a PDA plate, and incubated for up to 3 weeks to assess growth. The plates were examined and photographed each week. Cultures were considered positive when more than 2 colonies were found per plate.

Experiment [1] concerns Trichophyton mentagrophytes. The experiment in a line: Liquid broth assay (MIC). The class given is cell-based. Conditions: for MIC: Trichophyton mentagrophytes, 672 h, liquid (broth) culture, incubated up to 4 weeks, one value without distinguishing the two dermatophytes, read-out: minimal inhibitory concentration (MIC); for antifungal activity ranking: liquid broth assay, rank 1 = most active, same ranking for both dermatophytes. The protocol: as §1, §2

On to `Clc1ccc(COC(Cn2ccnc2)c2ccc(Cl)cc2Cl)cc1` (stereo not drawn) [econazole, econazole Nitrate], for which the MIC (in the experiment with Trichophyton rubrum; in experiment [1]) was less than 3.9 µg/mL throughout. The antifungal activity ranking (in the experiment on Trichophyton rubrum; in experiment [1]) was 1 throughout.

For the molecule `CC(=O)N1CCN(c2ccc(OCC3COC(Cn4ccnc4)(c4ccc(Cl)cc4Cl)O3)cc2)CC1` (stereo not drawn) [ketoconazole], the antifungal activity ranking (with Trichophyton rubrum; in experiment [1]) was 3 throughout.

As to `CCCCCCCCCC(=O)OCC(O)CO` (racemic) [1-monocaprin, 1-decanoyl-rac-glycerol], the MIC (in the experiment with Trichophyton rubrum; in experiment [1]) was 250 µg/mL (≈ 1010 µM) each time. The antifungal activity ranking (with Trichophyton rubrum; in experiment [1]) was 5 in each case.

Turning to `CN(C/C=C/C#CC(C)(C)C)Cc1cccc2ccccc12` [Terbinafine, terbinafine HCl], the MIC (in the experiment with Trichophyton rubrum; in experiment [1]) was less than 3.9 µg/mL in each case. Further, the antifungal activity ranking (with Trichophyton rubrum; in experiment [1]) was 1 throughout.

Take `Clc1ccc(C(Cn2ccnc2)OCc2ccsc2Cl)c(Cl)c1` (stereo not drawn) [tioconazole]: the antifungal activity ranking (in the experiment with Trichophyton rubrum; in experiment [1]) was 2 in each case.

For the molecule `Cc1cc(C2CCCCC2)n(O)c(=O)c1` [ciclopirox], the MIC (in the experiment with Trichophyton rubrum; in experiment [1]) was 31.3 µg/mL (≈ 151 µM) throughout. For the same molecule, the antifungal activity ranking (in the experiment on Trichophyton rubrum; in experiment [1]) was 4 throughout.

As to `CCCCc1ccc(C(=O)O)nc1` [Fusaric acid, fusaric Acid], in the experiment with Trichophyton rubrum, the MIC stood at 500 µg/mL (≈ 2790 µM) and the antifungal activity ranking came out at 6. In addition, in experiment [1], the MIC stood at 500 µg/mL (≈ 2790 µM) and the antifungal activity ranking came out at 6.
